In assay [1] the test system is HL-60. The assay is described as follows: Induction of necrosis in intact human HL60 cells assessed as cytosolic LDH release at 50 uM. Format: functional, cell-based. For orientation: LDH in the medium is a marker of cell lysis.
Assay [2] deals with HL-60. The assay is described as follows: Induction of apoptosis in human HL60 cells assessed as early apoptotic cells level at 5 uM annexin V-PE and 7-AAD staining based by flow cytometry (reference value: 18.5%). The class given is functional. For orientation: In flow cytometry, cells or beads pass a laser one at a time.
Assay [3] deals with HL-60. The assay is described as follows: Induction of cell cycle arrest in human HL60 cells assessed as accumulation at S phase at 5 uM after 48 hrs by propidium iodide staining based flow cytometry (reference value: 45%). Format: functional.
Assay [4] has as its system HL-60. The assay is described as follows: Induction of apoptosis in human HL60 cells assessed as dead cells level at 10 uM annexin V-PE and 7-AAD staining based by flow cytometry (reference value: 0.4%). Format: functional.
Assay [5] concerns HL-60. The assay is described as follows: Induction of cell cycle arrest in human HL60 cells assessed as accumulation at G0/G1 phase at 5 uM after 48 hrs by propidium iodide staining based flow cytometry (reference value: 42.9%). The class given is functional.
The test system of assay [6] is HL-60. The assay is described as follows: Induction of cell cycle arrest in human HL60 cells assessed as accumulation at subG1 phase at 5 uM after 48 hrs by propidium iodide staining based flow cytometry (reference value: 0.5%). Format: functional.
The test system of assay [7] is HL-60. The assay is described as follows: Induction of apoptosis in human HL60 cells assessed as early apoptotic cells level at 10 uM annexin V-PE and 7-AAD staining based by flow cytometry (reference value: 18.5%). The class given is functional.
Assay [8] deals with HL-60. The assay is described as follows: Induction of apoptosis in human HL60 cells assessed as intact cells level at 10 uM annexin V-PE and 7-AAD staining based by flow cytometry (reference value: 80.7%). The class given is functional.
Assay [9] relates to HL-60. The assay is described as follows: Induction of cell cycle arrest in human HL60 cells assessed as accumulation at G2/M phase at 5 uM after 48 hrs by propidium iodide staining based flow cytometry (reference value: 11.6%). Format: functional.
In assay [10] the test system is HL-60. The assay is described as follows: Induction of apoptosis in human HL60 cells assessed as intact cells level at 2 uM annexin V-PE and 7-AAD staining based by flow cytometry (reference value: 80.7%). Format: functional.
For assay [11], the system named is HL-60. The assay is described as follows: Induction of apoptosis in human HL60 cells assessed as intact cells level at 5 uM annexin V-PE and 7-AAD staining based by flow cytometry (reference value: 80.7%). Format: functional.
The test system of assay [12] is HL-60. The assay is described as follows: Induction of apoptosis in human HL60 cells assessed as early apoptotic cells level at 2 uM annexin V-PE and 7-AAD staining based by flow cytometry (reference value: 18.5%). Format: functional.
The subject of assay [13] is SK-OV-3. The assay is described as follows: Growth inhibition of human SKOV3 cells at 10 uM after 72 hrs by MTS assay. To be noted: SK-OV-3, 72 h, read-out: GI. Format: functional.
In assay [14] the test system is HL-60. The assay is described as follows: Induction of necrosis in intact human HL60 cells assessed as cytosolic LDH release at 2 to 10 uM. Format: functional, cell-based.
The nature of assay [15]: Growth inhibition of drug resistant human HL60 cells at 10 uM after 72 hrs by MTS assay. The class given is functional. To be noted: HL-60, 72 h, read-out: GI.
Assay [16] is described as follows: Growth inhibition of human HL60 cells at 10 uM after 72 hrs by MTS assay. Format: functional. The note with it: HL-60, 72 h, read-out: GI. For orientation: Tetrazolium dyes change colour on reduction, which living cells bring about.
Assay [17] deals with HL-60. The assay is described as follows: Induction of necrosis in human HL60 cells assessed as total LDH activity at 2 to 10 uM. The class given is functional, cell-based.
Assay [18] is described as follows: Growth inhibition of human HCT116 cells at 10 uM after 72 hrs by MTS assay. Format: functional. To be noted: HCT-116, 72 h, read-out: GI.
Assay [19] relates to MCF7. The assay is described as follows: Growth inhibition of human MCF7 cells at 10 uM after 72 hrs by MTS assay. To be noted: MCF7, 72 h, read-out: GI. Format: functional.
The subject of assay [20] is KB. The assay is described as follows: Growth inhibition of human KB cells at 10 uM after 72 hrs by MTS assay. Format: functional. To be noted: read-out: GI.
Assay [21] deals with HL-60. The assay is described as follows: Induction of cell cycle arrest in human HL60 cells assessed as accumulation at S phase at 2 uM after 48 hrs by propidium iodide staining based flow cytometry (reference value: 45%). Format: functional.
Assay [22] is described as follows: Growth inhibition of human PC3 cells at 10 uM after 72 hrs by MTS assay. Format: functional. To be noted: PC-3, 72 h, read-out: GI.
In assay [23] the test system is HL-60. The assay is described as follows: Induction of apoptosis in human HL60 cells assessed as caspase-3 activation at 5 uM after 24 to 48 hrs by DEVD-AMC substrate based fluorescence assay. Format: functional, cell-based.
Assay [24] deals with HL-60. The assay is described as follows: Induction of cell cycle arrest in human HL60 cells assessed as accumulation at G0/G1 phase at 10 uM after 48 hrs by propidium iodide staining based flow cytometry (reference value: 42.9%). The class given is functional.
In assay [25] the test system is HL-60. The assay is described as follows: Induction of cell cycle arrest in human HL60 cells assessed as accumulation at G2/M phase at 10 uM after 48 hrs by propidium iodide staining based flow cytometry (reference value: 11.6%). Format: functional.
Assay [26] concerns HL-60. The assay is described as follows: Induction of cell cycle arrest in human HL60 cells assessed as accumulation at subG1 phase at 2 uM after 48 hrs by propidium iodide staining based flow cytometry (reference value: 0.5%). The class given is functional.
Assay [27] deals with HL-60. The assay is described as follows: Induction of cell cycle arrest in human HL60 cells assessed as accumulation at subG1 phase at 10 uM after 48 hrs by propidium iodide staining based flow cytometry (reference value: 0.5%). Format: functional.
The subject of assay [28] is HL-60. The assay is described as follows: Induction of apoptosis in human HL60 cells assessed as late apoptosis cells level at 10 uM annexin V-PE and 7-AAD staining based by flow cytometry (reference value: 0.4%). The class given is functional.
For assay [29], the system named is HL-60. The assay is described as follows: Induction of apoptosis in human HL60 cells assessed as dead cells level at 5 uM annexin V-PE and 7-AAD staining based by flow cytometry (reference value: 0.4%). The class given is functional.
Assay [30] in a line: Growth inhibition of human MCF7/R cells at 10 uM after 72 hrs by MTS assay. Format: functional. The note with it: MCF7R, read-out: GI.
The test system of assay [31] is HL-60. The assay is described as follows: Induction of apoptosis in human HL60 cells assessed as dead cells level at 2 uM annexin V-PE and 7-AAD staining based by flow cytometry (reference value: 0.4%). Format: functional.
Assay [32] deals with HL-60. The assay is described as follows: Induction of apoptosis in human HL60 cells assessed as late apoptosis cells level at 5 uM annexin V-PE and 7-AAD staining based by flow cytometry (reference value: 0.4%). The class given is functional.
The subject of assay [33] is HL-60. The assay is described as follows: Induction of cell cycle arrest in human HL60 cells assessed as accumulation at G0/G1 phase at 2 uM after 48 hrs by propidium iodide staining based flow cytometry (reference value: 42.9%). The class given is functional.
Assay [34] concerns HL-60. The assay is described as follows: Induction of cell cycle arrest in human HL60 cells assessed as accumulation at G2/M phase at 2 uM after 48 hrs by propidium iodide staining based flow cytometry (reference value: 11.6%). The class given is functional.
For assay [35], the system named is HL-60. The assay is described as follows: Induction of cell cycle arrest in human HL60 cells assessed as accumulation at S phase at 10 uM after 48 hrs by propidium iodide staining based flow cytometry (reference value: 45%). Format: functional.
Assay [36] relates to HL-60. The assay is described as follows: Induction of apoptosis in human HL60 cells assessed as late apoptosis cells level at 2 uM annexin V-PE and 7-AAD staining based by flow cytometry (reference value: 0.4%). The class given is functional.
For assay [37], the system named is HL-60. The assay is described as follows: Induction of cell cycle arrest in human HL60 cells assessed as accumulation at G0/G1 phase at 50 nM after 48 hrs by propidium iodide staining based flow cytometry (reference value: 42.9%). Format: functional.
For assay [38], the system named is HL-60. The assay is described as follows: Induction of apoptosis in human HL60 cells assessed as intact cells level at 100 nM annexin V-PE and 7-AAD staining based by flow cytometry (reference value: 80.7%). Format: functional.
Assay [39] concerns HL-60. The assay is described as follows: Induction of cell cycle arrest in human HL60 cells assessed as accumulation at S phase at 50 nM after 48 hrs by propidium iodide staining based flow cytometry (reference value: 45%). The class given is functional.
Assay [40] concerns HL-60. The assay is described as follows: Induction of cell cycle arrest in human HL60 cells assessed as accumulation at G2/M phase at 50 nM after 48 hrs by propidium iodide staining based flow cytometry (reference value: 11.6%). Format: functional.
The test system of assay [41] is HL-60. The assay is described as follows: Induction of apoptosis in human HL60 cells assessed as early apoptotic cells level at 100 nM annexin V-PE and 7-AAD staining based by flow cytometry (reference value: 18.5%). The class given is functional.
In assay [42] the test system is HL-60. The assay is described as follows: Induction of apoptosis in human HL60 cells assessed as dead cells level at 100 nM annexin V-PE and 7-AAD staining based by flow cytometry (reference value: 0.4%). The class given is functional.
In assay [43] the test system is HL-60. The assay is described as follows: Induction of cell cycle arrest in human HL60 cells assessed as accumulation at subG1 phase at 50 nM after 48 hrs by propidium iodide staining based flow cytometry (reference value: 0.5%). Format: functional.
Assay [44] deals with HL-60. The assay is described as follows: Induction of necrosis in intact human HL60 cells assessed as cytosolic LDH release at 1 uM. Format: functional, cell-based.
Assay [45] concerns HL-60. The assay is described as follows: Induction of apoptosis in human HL60 cells assessed as late apoptosis cells level at 100 nM annexin V-PE and 7-AAD staining based by flow cytometry (reference value: 0.4%). Format: functional.

Molecules are shown by their SMILES. The source made the active and inactive calls. No cut-off for these calls is given here.

As for `CC1=CC(=O)c2ccccc2C1=O`, in [1], the result was Active.

As for `COC(=O)C1(Cc2ccc(OC)cc2)CC(=O)OC1(C)c1ccccc1` (stereo not drawn), the Activity is recorded as 46.4% in assay [2]; 25.6% in assay [3]; 1.65% in assay [4]; 23.4% in assay [5]; 38.9% in assay [6]; 53.35% in [7]. For the same molecule, the Activity in assay [8] is 40.7%; in assay [9], 12.2%; in [10], 61.45%; in assay [11] it was 50.55%; in assay [12], 37.65%; in assay [21], 24%. For the same molecule, the Activity in assay [24] stood at 19.5%; in [25], 13.1%; in assay [26], 14.1%; in assay [27], 37.7%; in [28] it was 4.25%; in assay [29] it was 0.9%. For the same molecule, the Activity is listed as 0.35% in assay [31]; 2.2% in assay [32]; 36.3% in assay [33]; 25.6% in assay [34]; 29.7% in [35]; 0.65% in assay [36]. In addition, the inhibition of growth at 10 µM in assay [13] is 76%; in assay [15], 92%; in assay [16] it was 82%; in assay [18], 61%; in assay [19], 56%; in [20] it was 95%. For the same molecule, the inhibition of growth at 10 µM in assay [22] worked out at 68%; in assay [30], 82%. The outcome in assay [14] was inactive. Further, the outcome in [17] and in [23] was Active.

With `COc1cccc2c1C(=O)c1c(O)c3c(c(O)c1C2=O)C[C@@](O)(C(=O)CO)C[C@@H]3O[C@H]1C[C@H](N)[C@H](O)[C@H](C)O1` [DOXORUBICIN], the Activity was 23% in [37]; 14.7% in assay [38]; 32.5% in assay [39]; 40% in [40]; 81.65% in assay [41]; 0.5% in assay [42]. In addition, the Activity in assay [43] is listed as 4.5%; in assay [45] it was 3.15%. Further, the result in assay [44] was inactive.

On to `COC(=O)C1(Cc2ccc(C(F)(F)F)cc2)CC(=O)OC1(C)c1ccccc1` (stereo not drawn), for which the inhibition of growth at 10 µM in assay [16] turned out to be 28%; in assay [18], 25%; in [19], 19%; in assay [20], 15%.

Take `COC(=O)C1(Cc2cc(OC)c(OC)c(OC)c2)CC(=O)OC1c1ccccc1` (stereo not drawn): the inhibition of growth at 10 µM in [16] came to 7%; in [18], 16%; in [19], 1%; in assay [20], 0%.
